Data on 21 compounds can be found in ChEMBL document CHEMBL1201862, “PubChem BioAssay data set” (2004).

Active and inactive are the calls of the source.

The IC50 is the concentration needed to halve the response being measured. The AC50 is the midpoint of the concentration-response curve, whichever way the signal moves. One may read the CC50 as the concentration giving 50% cytotoxicity.

Assay [1] addresses Voltage-dependent T-type calcium channel subunit alpha-1H (Homo sapiens, UniProt O95180). Type of assay: functional.
A short description of assay [2]: Trypanosoma cruzi growth suppression in host cells – NIH3T3 host cells, beta-gal luminescence, confirmation (AID 2044).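 Also: intracellular parasites grown in NIH/3T3 mouse fibroblasts as host cells; luminescent beta-galactosidase reporter signal from transgenic T. cruzi replicating inside host cells; inhibitors lower the luminescence signal.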 It is filed as functional, cell-based.
Assay [3] addresses T1, Fatty acid synthase (Homo sapiens, UniProt P49327). Description: inhibition of human FAS-TE enzyme activity – biochemical, kinetic fluorescence intensity, dose response (AID 624326).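 Also: rate of fluorescence rise from hydrolysis of a fluorogenic O-methyl fluorescein ester substrate.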 It is filed as functional.
Assay [4] deals with T1, Fatty acid synthase. As to the kind of experiment: inhibition of human FAS-TE enzyme activity – biochemical, endpoint fluorescence intensity, uHTS hits, dose response (AID 624327).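 Also: fluorescence from hydrolysis of an O-methyl fluorescein acyl ester substrate by the enzyme.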 Type of assay: functional.
Assay [5] is described as follows: NIH3T3 cell viability loss – ATP luminescence, mouse fibroblasts, counter-screen, dose response (AID 2010).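 Also: cells exposed to compound for about 90 hours before reading.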 Type of assay: functional, cell-based. In general terms: A counterscreen serves to expose hits that act by an unwanted route or on another target.
Assay [6] deals with T2, Short transient receptor potential channel 4 (Mus musculus, UniProt Q9QUQ5).
T2 sequence (Q9QUQ5 whole entry): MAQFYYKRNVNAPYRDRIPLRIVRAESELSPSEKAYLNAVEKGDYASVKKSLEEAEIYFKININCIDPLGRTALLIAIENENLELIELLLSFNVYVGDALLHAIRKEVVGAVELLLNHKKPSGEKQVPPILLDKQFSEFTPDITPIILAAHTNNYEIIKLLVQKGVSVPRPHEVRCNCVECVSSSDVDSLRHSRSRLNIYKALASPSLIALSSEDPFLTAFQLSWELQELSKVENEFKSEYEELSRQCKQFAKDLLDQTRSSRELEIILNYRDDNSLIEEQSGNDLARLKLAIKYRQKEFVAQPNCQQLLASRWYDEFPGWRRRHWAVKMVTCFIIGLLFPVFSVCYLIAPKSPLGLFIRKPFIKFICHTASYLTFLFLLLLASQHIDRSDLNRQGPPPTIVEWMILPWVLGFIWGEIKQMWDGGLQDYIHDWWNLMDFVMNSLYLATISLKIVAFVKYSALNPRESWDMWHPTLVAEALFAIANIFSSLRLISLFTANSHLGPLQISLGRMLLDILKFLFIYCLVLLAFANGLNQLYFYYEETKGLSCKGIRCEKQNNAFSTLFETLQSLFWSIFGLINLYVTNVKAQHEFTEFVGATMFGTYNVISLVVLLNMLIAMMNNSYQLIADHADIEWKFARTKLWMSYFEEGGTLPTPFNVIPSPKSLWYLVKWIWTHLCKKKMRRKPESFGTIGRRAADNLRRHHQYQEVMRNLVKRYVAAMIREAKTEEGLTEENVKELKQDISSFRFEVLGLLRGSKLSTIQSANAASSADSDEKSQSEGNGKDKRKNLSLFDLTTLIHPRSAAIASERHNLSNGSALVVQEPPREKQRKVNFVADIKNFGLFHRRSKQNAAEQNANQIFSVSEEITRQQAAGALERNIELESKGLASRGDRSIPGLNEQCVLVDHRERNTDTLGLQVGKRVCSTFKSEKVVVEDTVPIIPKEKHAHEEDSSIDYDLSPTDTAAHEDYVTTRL
As to the kind of experiment: calcium entry via TRPC4 opening agents – cell-based, HEK293 TRPC4/mu-opioid, Fluo-4 calcium, dose response (AID 434937). It is filed as functional.

Assay [7] concerns the target T3, DNA repair and recombination protein RAD54-like (Homo sapiens, UniProt Q92698).
T3 sequence (Q92698 whole entry): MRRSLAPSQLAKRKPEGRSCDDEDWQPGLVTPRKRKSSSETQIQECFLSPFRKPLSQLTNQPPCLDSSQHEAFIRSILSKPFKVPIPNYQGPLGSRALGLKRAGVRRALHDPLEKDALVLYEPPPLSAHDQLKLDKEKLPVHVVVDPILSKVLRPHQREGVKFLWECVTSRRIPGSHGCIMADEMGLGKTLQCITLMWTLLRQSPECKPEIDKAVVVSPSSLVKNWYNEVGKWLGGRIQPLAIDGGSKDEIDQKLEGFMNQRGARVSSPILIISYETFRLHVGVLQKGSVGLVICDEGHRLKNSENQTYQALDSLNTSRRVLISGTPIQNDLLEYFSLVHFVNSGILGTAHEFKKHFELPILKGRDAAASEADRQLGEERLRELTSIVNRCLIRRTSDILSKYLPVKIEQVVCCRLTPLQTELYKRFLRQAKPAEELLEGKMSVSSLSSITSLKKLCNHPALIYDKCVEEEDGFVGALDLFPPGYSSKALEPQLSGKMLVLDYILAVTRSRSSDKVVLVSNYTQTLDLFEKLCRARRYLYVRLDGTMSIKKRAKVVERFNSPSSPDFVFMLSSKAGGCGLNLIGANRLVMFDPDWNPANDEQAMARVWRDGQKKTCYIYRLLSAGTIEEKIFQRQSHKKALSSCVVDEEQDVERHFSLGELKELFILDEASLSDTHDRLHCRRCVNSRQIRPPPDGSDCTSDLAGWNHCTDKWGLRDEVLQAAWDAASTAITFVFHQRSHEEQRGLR
As to the kind of experiment: RAD54 Holliday junction migration blockers – biochemical, fluorescence, cherry-picked samples, dose series, confirmation (AID 651657). It is filed as functional.

Assay [8] deals with T4, DNA repair protein RAD52 homolog (Homo sapiens, UniProt P43351).
T4 sequence (P43351 whole entry): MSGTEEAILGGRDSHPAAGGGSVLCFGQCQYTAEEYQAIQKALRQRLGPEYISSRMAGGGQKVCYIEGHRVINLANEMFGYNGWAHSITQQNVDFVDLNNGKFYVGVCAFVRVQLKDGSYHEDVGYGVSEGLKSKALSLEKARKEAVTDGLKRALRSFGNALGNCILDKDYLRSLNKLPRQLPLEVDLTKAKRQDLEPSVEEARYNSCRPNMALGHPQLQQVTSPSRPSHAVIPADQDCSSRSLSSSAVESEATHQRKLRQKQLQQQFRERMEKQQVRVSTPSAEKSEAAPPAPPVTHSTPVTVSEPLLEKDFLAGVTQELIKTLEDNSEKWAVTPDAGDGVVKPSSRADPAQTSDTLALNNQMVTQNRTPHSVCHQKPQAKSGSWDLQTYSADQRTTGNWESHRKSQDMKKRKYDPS
Type of assay: functional, biochemical.

For a further assay, the system named is Vero. As to the kind of experiment: cells. The conditions noted are these: Chlorocebus sabaeus. It is filed as functional.
In assay [9] the target is T5, Corticotropin-releasing factor receptor 2/Corticotropin-releasing factor-binding protein (Homo sapiens, UniProt P24387+Q13324).
T5 sequence (Q13324 whole entry): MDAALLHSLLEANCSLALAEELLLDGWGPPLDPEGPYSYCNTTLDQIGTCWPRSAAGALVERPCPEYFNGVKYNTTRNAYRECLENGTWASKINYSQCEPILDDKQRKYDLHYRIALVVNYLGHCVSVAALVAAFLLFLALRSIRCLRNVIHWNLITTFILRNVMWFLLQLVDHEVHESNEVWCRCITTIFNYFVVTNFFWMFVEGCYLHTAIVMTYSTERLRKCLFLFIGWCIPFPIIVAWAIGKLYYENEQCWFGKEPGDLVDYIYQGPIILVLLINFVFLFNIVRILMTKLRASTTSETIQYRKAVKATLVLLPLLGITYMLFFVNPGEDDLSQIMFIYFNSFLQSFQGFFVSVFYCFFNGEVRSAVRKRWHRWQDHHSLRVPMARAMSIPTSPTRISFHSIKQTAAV
T5 sequence (P24387 whole entry): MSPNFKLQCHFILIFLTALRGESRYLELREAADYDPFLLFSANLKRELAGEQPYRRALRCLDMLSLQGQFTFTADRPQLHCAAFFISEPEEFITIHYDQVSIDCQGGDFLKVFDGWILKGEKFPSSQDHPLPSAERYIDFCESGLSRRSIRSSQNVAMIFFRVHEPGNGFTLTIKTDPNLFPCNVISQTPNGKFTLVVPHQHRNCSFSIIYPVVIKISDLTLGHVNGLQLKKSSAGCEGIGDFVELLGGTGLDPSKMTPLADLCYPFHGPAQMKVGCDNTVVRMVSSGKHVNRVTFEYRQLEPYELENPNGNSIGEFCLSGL
As to the kind of experiment: activators of CRF receptor 2 with binding protein – uHTS hits, confirmation (AID 602473). It is filed as functional. Conditions: read-out: EC50_Mean.

The target in another assay is Cytochrome P450 2C9 (Homo sapiens, UniProt P11712).
The target in the next assay is Cytochrome P450 2C19 (Homo sapiens, UniProt P33261). As to the kind of experiment: Cytochrome panel assay with activity outcomes. Panel member name: p450-cyp2c19 Compounds with AC50 equal or less than 10 uM are considered active. It is filed as functional. The conditions noted are these: read-out: AC50.

Voltage-dependent T-type calcium channel subunit alpha-1H, sequence (O95180 whole entry): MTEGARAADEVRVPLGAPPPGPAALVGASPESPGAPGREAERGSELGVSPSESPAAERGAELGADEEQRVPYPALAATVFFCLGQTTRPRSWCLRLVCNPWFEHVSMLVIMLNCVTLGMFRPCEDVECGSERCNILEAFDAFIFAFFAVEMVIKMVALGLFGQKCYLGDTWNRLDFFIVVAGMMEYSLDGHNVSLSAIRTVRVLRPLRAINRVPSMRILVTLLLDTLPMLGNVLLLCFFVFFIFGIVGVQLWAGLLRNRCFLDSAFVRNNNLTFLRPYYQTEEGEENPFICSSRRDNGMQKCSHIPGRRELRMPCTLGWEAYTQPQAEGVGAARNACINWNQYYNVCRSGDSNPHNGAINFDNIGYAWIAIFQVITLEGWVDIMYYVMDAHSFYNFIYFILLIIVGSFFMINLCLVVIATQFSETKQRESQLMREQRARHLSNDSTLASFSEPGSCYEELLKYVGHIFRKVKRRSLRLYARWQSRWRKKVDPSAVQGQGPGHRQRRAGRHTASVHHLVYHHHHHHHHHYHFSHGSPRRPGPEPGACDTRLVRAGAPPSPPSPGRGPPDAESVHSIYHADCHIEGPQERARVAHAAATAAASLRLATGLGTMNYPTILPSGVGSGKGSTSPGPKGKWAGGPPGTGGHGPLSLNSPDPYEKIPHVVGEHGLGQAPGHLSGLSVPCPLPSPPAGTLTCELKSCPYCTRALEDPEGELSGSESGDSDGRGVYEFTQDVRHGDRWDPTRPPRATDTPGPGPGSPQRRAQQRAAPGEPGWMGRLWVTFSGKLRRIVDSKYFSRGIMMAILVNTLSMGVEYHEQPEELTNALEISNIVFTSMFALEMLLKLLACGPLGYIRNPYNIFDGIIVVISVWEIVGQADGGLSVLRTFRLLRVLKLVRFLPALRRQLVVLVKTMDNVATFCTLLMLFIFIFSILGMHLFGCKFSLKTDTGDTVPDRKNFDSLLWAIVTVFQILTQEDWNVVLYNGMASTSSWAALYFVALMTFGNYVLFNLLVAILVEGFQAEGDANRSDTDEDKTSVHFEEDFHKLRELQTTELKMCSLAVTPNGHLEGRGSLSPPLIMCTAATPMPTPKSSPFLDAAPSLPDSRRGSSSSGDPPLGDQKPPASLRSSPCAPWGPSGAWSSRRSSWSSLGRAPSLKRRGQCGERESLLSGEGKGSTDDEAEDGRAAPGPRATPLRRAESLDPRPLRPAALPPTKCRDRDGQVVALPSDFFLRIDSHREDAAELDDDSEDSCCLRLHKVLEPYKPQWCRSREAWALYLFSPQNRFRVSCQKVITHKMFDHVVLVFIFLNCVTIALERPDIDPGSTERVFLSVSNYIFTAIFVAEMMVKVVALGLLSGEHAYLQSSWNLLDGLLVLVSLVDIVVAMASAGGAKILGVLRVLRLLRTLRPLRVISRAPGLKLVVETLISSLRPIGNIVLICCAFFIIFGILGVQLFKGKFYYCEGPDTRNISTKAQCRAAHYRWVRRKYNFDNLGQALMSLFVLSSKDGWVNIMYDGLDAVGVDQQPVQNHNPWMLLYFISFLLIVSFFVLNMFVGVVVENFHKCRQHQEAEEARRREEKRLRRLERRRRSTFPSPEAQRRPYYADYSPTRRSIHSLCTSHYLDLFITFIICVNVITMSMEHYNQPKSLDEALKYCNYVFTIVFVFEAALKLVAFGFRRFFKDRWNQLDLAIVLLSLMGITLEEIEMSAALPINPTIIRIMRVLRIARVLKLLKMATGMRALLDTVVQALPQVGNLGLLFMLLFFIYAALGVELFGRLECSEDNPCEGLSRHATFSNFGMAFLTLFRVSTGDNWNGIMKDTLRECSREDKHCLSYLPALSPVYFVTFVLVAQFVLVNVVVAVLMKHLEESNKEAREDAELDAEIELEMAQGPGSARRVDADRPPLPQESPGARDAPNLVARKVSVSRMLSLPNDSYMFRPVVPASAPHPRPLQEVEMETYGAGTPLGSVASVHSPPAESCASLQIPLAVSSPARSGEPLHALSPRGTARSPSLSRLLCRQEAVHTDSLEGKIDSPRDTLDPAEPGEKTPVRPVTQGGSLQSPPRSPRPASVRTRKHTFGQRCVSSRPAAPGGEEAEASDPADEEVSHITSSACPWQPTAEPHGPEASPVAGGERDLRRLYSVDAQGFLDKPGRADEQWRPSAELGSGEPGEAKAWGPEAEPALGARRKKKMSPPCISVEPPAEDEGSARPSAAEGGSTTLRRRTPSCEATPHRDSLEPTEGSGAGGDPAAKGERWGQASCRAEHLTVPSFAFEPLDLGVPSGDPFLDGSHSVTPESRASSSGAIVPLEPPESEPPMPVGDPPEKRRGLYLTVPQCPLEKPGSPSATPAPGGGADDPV
T1 sequence (P49327 whole entry): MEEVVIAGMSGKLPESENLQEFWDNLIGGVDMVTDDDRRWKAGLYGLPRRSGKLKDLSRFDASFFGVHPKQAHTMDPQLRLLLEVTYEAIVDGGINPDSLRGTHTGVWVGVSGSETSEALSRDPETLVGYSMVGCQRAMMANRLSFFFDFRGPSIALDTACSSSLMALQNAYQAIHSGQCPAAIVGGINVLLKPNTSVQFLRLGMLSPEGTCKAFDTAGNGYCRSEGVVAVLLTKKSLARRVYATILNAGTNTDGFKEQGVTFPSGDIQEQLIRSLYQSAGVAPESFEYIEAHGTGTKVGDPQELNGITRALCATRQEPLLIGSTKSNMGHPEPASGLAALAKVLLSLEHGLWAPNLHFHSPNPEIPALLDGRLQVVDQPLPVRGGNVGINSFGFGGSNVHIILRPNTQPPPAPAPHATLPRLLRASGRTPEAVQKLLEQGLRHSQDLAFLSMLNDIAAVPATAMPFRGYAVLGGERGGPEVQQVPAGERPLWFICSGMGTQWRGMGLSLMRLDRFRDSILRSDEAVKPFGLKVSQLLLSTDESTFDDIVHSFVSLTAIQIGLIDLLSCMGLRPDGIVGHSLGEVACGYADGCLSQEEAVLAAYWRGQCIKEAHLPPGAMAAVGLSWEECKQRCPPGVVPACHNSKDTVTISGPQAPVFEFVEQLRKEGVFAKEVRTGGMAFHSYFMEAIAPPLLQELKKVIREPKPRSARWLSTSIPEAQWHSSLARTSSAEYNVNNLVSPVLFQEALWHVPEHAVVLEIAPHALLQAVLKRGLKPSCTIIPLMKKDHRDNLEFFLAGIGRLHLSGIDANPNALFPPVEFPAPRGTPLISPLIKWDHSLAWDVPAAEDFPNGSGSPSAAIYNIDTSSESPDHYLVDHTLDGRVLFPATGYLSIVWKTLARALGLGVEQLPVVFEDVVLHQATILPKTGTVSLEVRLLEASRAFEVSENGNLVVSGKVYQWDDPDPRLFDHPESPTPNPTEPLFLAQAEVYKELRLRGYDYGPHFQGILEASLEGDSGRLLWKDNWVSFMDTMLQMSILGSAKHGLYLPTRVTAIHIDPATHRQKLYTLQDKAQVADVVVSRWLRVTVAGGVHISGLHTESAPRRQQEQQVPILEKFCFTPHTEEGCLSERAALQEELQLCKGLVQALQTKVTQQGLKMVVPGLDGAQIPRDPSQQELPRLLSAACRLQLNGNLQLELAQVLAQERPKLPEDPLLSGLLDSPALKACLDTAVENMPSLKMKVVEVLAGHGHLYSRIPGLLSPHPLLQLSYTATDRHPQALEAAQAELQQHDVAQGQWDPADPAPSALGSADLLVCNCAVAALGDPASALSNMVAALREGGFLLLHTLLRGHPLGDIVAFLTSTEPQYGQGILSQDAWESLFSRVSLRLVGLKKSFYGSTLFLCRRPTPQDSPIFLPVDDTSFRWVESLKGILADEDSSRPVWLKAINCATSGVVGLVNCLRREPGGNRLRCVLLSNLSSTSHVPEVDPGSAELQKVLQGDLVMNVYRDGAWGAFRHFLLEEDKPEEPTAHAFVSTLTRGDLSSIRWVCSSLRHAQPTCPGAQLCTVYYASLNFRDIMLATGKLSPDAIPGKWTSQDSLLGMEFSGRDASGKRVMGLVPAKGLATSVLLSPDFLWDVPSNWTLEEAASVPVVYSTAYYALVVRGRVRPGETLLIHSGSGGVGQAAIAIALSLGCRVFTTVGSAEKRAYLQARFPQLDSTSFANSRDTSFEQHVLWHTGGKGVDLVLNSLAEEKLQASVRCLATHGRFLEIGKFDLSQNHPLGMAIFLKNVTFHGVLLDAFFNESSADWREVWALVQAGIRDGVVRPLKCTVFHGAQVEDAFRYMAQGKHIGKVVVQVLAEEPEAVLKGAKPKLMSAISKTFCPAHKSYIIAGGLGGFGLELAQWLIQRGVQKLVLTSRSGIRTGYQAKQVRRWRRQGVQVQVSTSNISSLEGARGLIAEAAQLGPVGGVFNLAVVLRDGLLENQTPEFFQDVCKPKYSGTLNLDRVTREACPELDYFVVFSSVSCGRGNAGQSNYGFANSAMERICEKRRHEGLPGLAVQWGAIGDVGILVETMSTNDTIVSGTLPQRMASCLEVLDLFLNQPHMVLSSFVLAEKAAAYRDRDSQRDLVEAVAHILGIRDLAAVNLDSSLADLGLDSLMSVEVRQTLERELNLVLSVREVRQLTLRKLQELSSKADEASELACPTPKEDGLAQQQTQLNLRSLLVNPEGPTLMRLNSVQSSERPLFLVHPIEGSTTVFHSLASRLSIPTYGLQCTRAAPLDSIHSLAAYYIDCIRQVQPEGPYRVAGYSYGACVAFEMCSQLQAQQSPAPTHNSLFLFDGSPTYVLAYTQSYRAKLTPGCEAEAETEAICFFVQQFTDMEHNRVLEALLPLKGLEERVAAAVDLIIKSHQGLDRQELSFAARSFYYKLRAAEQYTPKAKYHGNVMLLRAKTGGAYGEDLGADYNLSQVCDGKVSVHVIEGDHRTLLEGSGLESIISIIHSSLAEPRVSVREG

Consider `COc1ccc(-c2noc(CSc3nnc(Cc4ccccc4)n3-c3cccc(C)c3)n2)cc1OC`, for which the EC50 in [1] is 4.35 µM (active).

As to `CCC(SC1=N/C(=C/c2ccccc2OC)C(=O)N1c1ccccc1)C(=O)Nc1cc(C)on1` (stereo not given), the EC50 in assay [1] is 4.23 µM (active).

As to `Cc1c([N+](=O)[O-])cc(C(=O)Nc2ccc(Cc3ccncc3)cc2)cc1[N+](=O)[O-]`, the EC50 is 0.799 µM (active) in [2] and > 60 µM (not active) in [5]. Further, the half-maximal inhibitory concentration (IC50) at Fatty acid synthase [3] is 8.08 µM (active); at Fatty acid synthase [4] it was 7.27 µM (active).

Turning to `CN(C)CCCN(C(=O)c1ccc(C(=O)c2ccccc2)cc1)c1nc2ccc(F)cc2s1`, the EC50 in [2] was 0.104 µM (active); in assay [6] it was 5.96 µM (active); in [5], > 60 µM (not active).

As for `CCN(CC)CC(O)c1ccc2ccc3ccc(O)cc3c2c1` (stereo not given), the half-maximal activity concentration (AC50) is 23.3 µM (active) in assay [7] and 7.92 µM (active) in [8]. Also, the half-maximal cytotoxic concentration (CC50) in the assay on Vero is > 25 µM (active).

For `CCCN1CCN(C(S)=Nc2ccc3nc(N4CCN(CC)CC4)cc(C)c3c2)CC1`, the AC50 was 82.8 µM (active) in assay [7] and 15.3 µM (active) in assay [8].

With `COc1ccc2cc3cc(C(=O)NCCCN4CCC(C)CC4)oc3nc2c1`, the AC50 in assay [7] was 29.2 µM (active).

Consider `COCCn1nnnc1C(c1cccs1)N1CCN(c2cccc(C(F)(F)F)c2)CC1` (stereo not given), for which the EC50 in [1] is 97.8 µM (active).

`CCOc1ccccc1CN1CCNC(=O)C1CC(=O)NCCc1ccccn1` (stereo not given): in [6], the EC50 was 5.96 µM (active).

For `CN(C)CCN(C(=O)CN1C(=O)c2ccccc2C1=O)c1nc2cc3c(cc2s1)OCO3`, the concentration at half-maximal activity (AC50) in assay [7] was 41.5 µM (active); in [8], 23.9 µM (active).

As for `COc1ccc2[nH]c3c(c2c1)CCN1C(=O)C(CC(=O)NCc2ccco2)C[C@H](C(=O)N2CCOCC2)[C@@]31CCC1CCCC1` (stereo not given in full), the IC50 on Fatty acid synthase [3] is 4.73 µM (active); on Fatty acid synthase [4], 5.98 µM (active).

In the case of `Cc1ccccc1Cn1nc(C)c(NC(=O)c2noc3c2CCc2ccccc2-3)c1C`, the EC50 in [1] was 1.92 µM (active).

With `COc1ccc(C(CNC(=O)Cc2cccs2)N(C)C)cc1` (stereo not given), the EC50 in assay [6] was 0.237 µM (active).

For the compound `O=C1c2ccccc2S(=O)(=O)c2cc(C(=O)N(c3ccccn3)c3ccccn3)ccc21`, the EC50 was 4.15 µM (active) in [9] and 1.88 µM (active) in assay [6].

`COc1ccc(C(=O)NC(C)CCc2ccccc2)cc1[N+](=O)[O-]` (stereo not given): the IC50 on Fatty acid synthase [3] was 9.58 µM (active); on Fatty acid synthase [4] it was 13.4 µM (active).

`COc1ccc(/C=C(/NC(=O)c2ccc([N+](=O)[O-])cc2)C(=O)NCCCN(C)C)cc1`: the IC50 on Fatty acid synthase [3] was 3.13 µM (active); on Fatty acid synthase [4], 5.03 µM (active).

Turning to `CCn1c(N2CCN(C(S)=NCCc3ccccc3)CC2)nc2ccccc21`, the EC50 in assay [6] was 0.376 µM (active).

`CCOc1ccc(NC(=O)c2cc([N+](=O)[O-])ccc2N2CCOCC2)cc1`: the values for the concentration for half-maximal inhibition (IC50) at Fatty acid synthase [3] and at Fatty acid synthase [4] were 13.7 µM (active) and 13.4 µM (active), respectively.

For the compound `COc1ccc(Cl)cc1-c1cc(C(=O)NCc2cccc(Cl)c2)[nH]n1`, the half-maximal inhibitory concentration (IC50) was 5.46 µM (active) on Fatty acid synthase [3] and 12.4 µM (active) on Fatty acid synthase [4].

Regarding `Cc1nn(Cc2ccc(Cl)c(Cl)c2)c(C)c1NC(=O)c1cn(-c2ccccc2)nc1-c1ccccc1`, the EC50 in assay [1] is 5.29 µM (active); in [2], 1.99 µM (active); in assay [5], > 60 µM (not active).

On to `COC(=O)[C@@]1(Cc2ccc(F)cc2)[C@H]2c3cc(C(=O)N(C)C)n(CCc4ccccn4)c3C[C@H]2CN1C(=O)c1ccccc1`, for which the AC50 is 10 µM (inconclusive) on Cytochrome P450 2C9 and 39.8 µM (inconclusive) at Cytochrome P450 2C19. Moreover, in assay [6], the EC50 was 5.96 µM (active).
